Results reported in the Kinase Knowledgebase extract (Sharma et al. 2016).

Each molecule was assayed against EGFR (human) (UniProt P00533) (assay: Assessment of EGFR Kinase Activity).
EGFR (human), sequence (P00533 whole entry, looked up): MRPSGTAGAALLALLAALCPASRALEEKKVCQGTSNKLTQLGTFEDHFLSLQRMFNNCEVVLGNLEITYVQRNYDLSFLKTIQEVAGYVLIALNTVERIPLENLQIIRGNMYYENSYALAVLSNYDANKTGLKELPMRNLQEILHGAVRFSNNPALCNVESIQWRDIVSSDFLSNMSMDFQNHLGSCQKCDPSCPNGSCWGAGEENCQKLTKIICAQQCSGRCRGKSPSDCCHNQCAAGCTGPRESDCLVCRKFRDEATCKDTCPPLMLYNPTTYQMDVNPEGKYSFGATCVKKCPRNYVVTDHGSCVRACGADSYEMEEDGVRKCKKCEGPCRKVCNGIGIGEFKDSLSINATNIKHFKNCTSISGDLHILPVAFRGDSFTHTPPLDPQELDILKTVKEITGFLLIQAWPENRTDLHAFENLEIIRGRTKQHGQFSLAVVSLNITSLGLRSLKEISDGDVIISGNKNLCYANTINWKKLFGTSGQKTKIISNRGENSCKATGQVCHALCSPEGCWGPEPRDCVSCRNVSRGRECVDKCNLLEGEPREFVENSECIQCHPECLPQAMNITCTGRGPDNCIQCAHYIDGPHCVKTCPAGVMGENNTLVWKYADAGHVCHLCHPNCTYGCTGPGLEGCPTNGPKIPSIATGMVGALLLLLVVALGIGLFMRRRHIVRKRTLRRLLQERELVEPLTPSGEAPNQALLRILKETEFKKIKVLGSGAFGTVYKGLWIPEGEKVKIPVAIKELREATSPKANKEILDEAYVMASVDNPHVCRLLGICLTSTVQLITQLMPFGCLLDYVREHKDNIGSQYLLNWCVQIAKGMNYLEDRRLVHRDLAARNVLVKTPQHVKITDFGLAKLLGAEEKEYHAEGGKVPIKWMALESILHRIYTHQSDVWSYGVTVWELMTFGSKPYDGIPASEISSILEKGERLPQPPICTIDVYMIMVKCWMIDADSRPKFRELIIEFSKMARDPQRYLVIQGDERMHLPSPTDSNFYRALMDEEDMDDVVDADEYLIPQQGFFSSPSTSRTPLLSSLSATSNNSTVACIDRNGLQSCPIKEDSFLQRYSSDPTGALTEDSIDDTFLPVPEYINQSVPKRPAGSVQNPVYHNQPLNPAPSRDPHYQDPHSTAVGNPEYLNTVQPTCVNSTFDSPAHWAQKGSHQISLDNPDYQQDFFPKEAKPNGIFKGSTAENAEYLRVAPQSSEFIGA
CC1(C)COP(=O)(CCNCc2ccc(-c3ccc4ncnc(Nc5ccc(OCc6cccc(F)c6)c(Cl)c5)c4c3)o2)OC1 was tested, and the IC50 was < 100 nM.
With CCN(CCP(C)(C)=O)Cc1ccc(-c2ccc3ncnc(Nc4ccc5c(cnn5Cc5cccc(F)c5)c4)c3c2)o1 the IC50 was < 100 nM.
For CP(C)(=O)CCNCc1ccc(-c2ccc3ncnc(Nc4ccc(OCc5cccc(F)c5)c(Cl)c4)c3c2)o1, the IC50 was < 100 nM.
CP1(=O)CCN(Cc2ccc(-c3ccc4ncnc(Nc5ccc(OCc6ccccn6)c(Cl)c5)c4c3)o2)CC1 was tested, and the IC50 was < 100 nM.
For CP1(=O)CCN(Cc2ccc(-c3ccc4ncnc(Nc5ccc(Br)cc5F)c4c3)o2)CC1, the IC50 was 100 to 1000 nM.
With CP(C)(=O)CCN(CCO)Cc1ccc(-c2ccc3ncnc(Nc4ccc5c(cnn5Cc5cccc(F)c5)c4)c3c2)o1 the IC50 was < 100 nM.
With CP(C)(=O)CN1CCN(Cc2ccc(-c3ccc4ncnc(Nc5ccc(OCc6cccc(F)c6)c(Cl)c5)c4c3)o2)CC1 the IC50 was < 100 nM.
With CP1(=O)CCN(Cc2ccc(-c3ccc4ncnc(Nc5ccc6c(cnn6Cc6cccc(F)c6)c5)c4c3)o2)CC1 the IC50 was < 100 nM.
Cc1cccc(COc2ccc(Nc3ncnc4ccc(-c5ccc(CN6CCP(C)(=O)CC6)o5)cc34)cc2Cl)[n+]1[O-] was tested, and the IC50 was < 100 nM.
With CP(C)(=O)CCNCC#Cc1ccc2ncnc(Nc3ccc(OCc4cccc(F)c4)c(Cl)c3)c2c1 the IC50 was < 100 nM.
For CP1(=O)CCN(Cc2ccc(-c3ccc4ncnc(Nc5ccc(OCc6cnccn6)c(Cl)c5)c4c3)o2)CC1, the IC50 was < 100 nM.
CP1(=O)CCN(Cc2ccc(-c3ccc4ncnc(Nc5ccc(OCc6cccc[n+]6[O-])c(Cl)c5)c4c3)o2)CC1 was tested, and the IC50 was < 100 nM.
In the case of Cc1ccc(Oc2ccc(Nc3ncnc4ccc(-c5ccc(CN6CCP(C)(=O)CC6)o5)cc34)cc2C)cn1, the IC50 is reported as < 100 nM.
With CP(C)(=O)CCNCc1ccc(-c2ccc3ncnc(Nc4ccc5c(cnn5Cc5cccc(F)c5)c4)c3c2)o1 the IC50 was < 100 nM.
CP1(=O)CCN(Cc2ccc(-c3ccc4ncnc(Nc5cccc(Cl)c5F)c4c3)o2)CC1 was tested, and the IC50 was < 100 nM.
With Cc1cccc(COc2ccc(Nc3ncnc4ccc(-c5ccc(CN6CCP(C)(=O)CC6)o5)cc34)cc2Cl)n1 the IC50 was 100 to 1000 nM.
C[C@@H](Nc1ncnc2ccc(-c3ccc(CN4CCP(C)(=O)CC4)o3)cc12)c1ccccc1 was tested, and the IC50 was < 100 nM.
In the case of CP1(=O)CCN(CC#Cc2ccc3ncnc(Nc4ccc(OCc5cccc(F)c5)c(Cl)c4)c3c2)CC1, the IC50 is reported as < 100 nM.
In the case of CP1(=O)CCN(C/C=C/c2ccc3ncnc(Nc4ccc(OCc5cccc(F)c5)c(Cl)c4)c3c2)CC1, the IC50 is reported as < 100 nM.
In the case of CCOP1(=O)CCN(Cc2ccc(-c3ccc4ncnc(Nc5ccc(OCc6cccc(F)c6)c(Cl)c5)c4c3)o2)CC1, the IC50 is reported as < 100 nM.
CP1(=O)CCN(Cc2ccc(-c3ccc4ncnc(Nc5ccc(OCc6cccc(F)c6)c(Br)c5)c4c3)o2)CC1 was tested, and the IC50 was < 100 nM.
CP1(=O)CCN(Cc2ccc(-c3ccc4ncnc(Nc5ccc(OCc6cccc(F)c6)c(Cl)c5)c4c3)o2)CC1 was tested, and the IC50 was < 100 nM.
In the case of CP1(=O)CCN(CC#Cc2ccc3ncnc(Nc4ccc5c(cnn5Cc5cccc(F)c5)c4)c3c2)CC1, the IC50 is reported as < 100 nM.
In the case of CP(C)(=O)CNCc1ccc(-c2ccc3ncnc(Nc4ccc(OCc5cccc(F)c5)c(Cl)c4)c3c2)o1, the IC50 is reported as < 100 nM.
In the case of COP(=O)(CCNCc1ccc(-c2ccc3ncnc(Nc4ccc(OCc5cccc(F)c5)c(Cl)c4)c3c2)o1)OC, the IC50 is reported as < 100 nM.
In the case of CP1(=O)CCN(CCCc2ccc3ncnc(Nc4ccc(OCc5cccc(F)c5)c(Cl)c4)c3c2)CC1, the IC50 is reported as < 100 nM.
In the case of C#Cc1cc(Nc2ncnc3ccc(-c4ccc(CN5CCP(C)(=O)CC5)o4)cc23)ccc1OCc1cccc(F)c1, the IC50 is reported as < 100 nM.
In the case of CP1(=O)CCN(Cc2ccc(-c3ccc4ncnc(Nc5ccc(Br)c(Cl)c5F)c4c3)o2)CC1, the IC50 is reported as < 100 nM.
